According to EP0908457B1, “3-(1,2-benzisothiazol- and isoxazol-5-Y1)-2,4(1H,3H)-pyrimidinedione or thione and 3-(1,2-benzisothiazol- and isoxazol-5-y1)-4(3H)-pyrimidinone or thione herbicidal agents” (BASF AKTIENGESELLSCHAFT, priority 1997, dated 1999):

Legend:
[1] = system: Echinochloa oryzoides (Ard.) Fritsch.; experiment: Preemergence weed control under flooded paddy conditions, ECHORC (Watergrass (Calif.)); assay type: in vivo; conditions: flooded paddy, rated three to four weeks after treatment; note: meaning of each grade not given here
[2] = system: Cyperus iria; experiment: Preemergence weed control under flooded paddy conditions, CYPIR (Rice Flatsedge); assay type: in vivo; conditions: flooded paddy, rated three to four weeks after treatment; note: meaning of each grade not given here
[3] = system: Cyperus serotinus, Rottb.; experiment: Preemergence weed control under flooded paddy conditions, CYPSE (Flatsedge); assay type: in vivo; conditions: rated three to four weeks after treatment; note: meaning of each grade not given here
[4] = system: Monochoria vaginalis, Presl.; experiment: Preemergence weed control under flooded paddy conditions, MOOVA (Monochoria); assay type: in vivo; conditions: flooded paddy, rated three to four weeks after treatment; note: meaning of each grade not given here
[5] = system: Sagittaria pygmaea, L.; experiment: Preemergence weed control under flooded paddy conditions, SAGPY (Arrowhead (Pygmaea)); assay type: in vivo; conditions: flooded paddy, rated three to four weeks after treatment; note: meaning of each grade not given here
[6] = system: Oryza sativa, (L.) Tebonnet; experiment: Rice tolerance to post-transplant applications under flooded paddy conditions (Example 187), ORYSAT (Rice, Tebonnet); conditions: rated three to four weeks after treatment
[7] = 0.0313 kg/ha, preemergence weeds
[8] = 0.0625 kg/ha, preemergence weeds
[9] = 0.1250 kg/ha, preemergence weeds
[10] = 0.2500 kg/ha, preemergence weeds
[11] = Rate 0.0320 kg/ha, preemergence
[12] = Rate 0.0620 kg/ha, preemergence
[13] = Rate 0.1250 kg/ha, preemergence
[14] = Rate 0.2500 kg/ha, preemergence

C=CCOC(=O)COc1ccc(C)cc1-c1nsc2ccc(-n3c(=O)cc(C(F)(F)F)n(C)c3=O)cc12 [Example 69, Allyl {{2-{5-[3,6-dihydro-3-methyl-2,6-dioxo-4-(trifluoromethyl)-1(2H)-pyrimidinyl]-1,2-benzisothiazol-3-yl}-p-tolyl}oxy}acetate]
herbicidal effect rating, ECHORC ([1]; 0.0313 kg/ha, preemergence): 9.0 | herbicidal effect rating, ECHORC ([1]; 0.0625 kg/ha, preemergence): 9.0 | herbicidal effect rating, ECHORC ([1]; 0.1250 kg/ha, preemergence): 9.0 | herbicidal effect rating, ECHORC ([1]; 0.2500 kg/ha, preemergence): 9.0 | herbicidal effect rating, CYPIR ([2]; 0.0313 kg/ha, preemergence): 0.0 | herbicidal effect rating, CYPIR ([2]; 0.0625 kg/ha, preemergence): 2.0 | herbicidal effect rating, CYPIR ([2]; 0.1250 kg/ha, preemergence): 4.0 | herbicidal effect rating, CYPIR ([2]; 0.2500 kg/ha, preemergence): 7.0 | herbicidal effect rating, CYPSE ([3]; 0.0313 kg/ha, preemergence): 0.0 | herbicidal effect rating, CYPSE ([3]; 0.0625 kg/ha, preemergence): 0.0 | herbicidal effect rating, CYPSE ([3]; 0.1250 kg/ha, preemergence): 2.0 | herbicidal effect rating, CYPSE ([3]; 0.2500 kg/ha, preemergence): 9.0 | herbicidal effect rating, MOOVA ([4]; 0.0313 kg/ha, preemergence): 9.0 | herbicidal effect rating, MOOVA ([4]; 0.0625 kg/ha, preemergence): 9.0 | herbicidal effect rating, MOOVA ([4]; 0.1250 kg/ha, preemergence): 9.0 | herbicidal effect rating, MOOVA ([4]; 0.2500 kg/ha, preemergence): 9.0 | herbicidal effect rating, SAGPY ([5]; 0.0313 kg/ha, preemergence): 0.0 | herbicidal effect rating, SAGPY ([5]; 0.0625 kg/ha, preemergence): 0.0 | herbicidal effect rating, SAGPY ([5]; 0.1250 kg/ha, preemergence): 2.0 | herbicidal effect rating, SAGPY ([5]; 0.2500 kg/ha, preemergence): 9.0 | herbicidal effect rating, ORYSAT (rice tolerance) ([6]; 0.0313 kg/ha): 3.5 | herbicidal effect rating, ORYSAT (rice tolerance) ([6]; 0.0625 kg/ha): 5.0 | herbicidal effect rating, ORYSAT (rice tolerance) ([6]; 0.1250 kg/ha): 6.5 | herbicidal effect rating, ORYSAT (rice tolerance) ([6]; 0.2500 kg/ha): 8.0

Cc1ccc(OC2CC(C)OC2=O)c(-c2nsc3ccc(-n4c(=O)cc(C(F)(F)F)n(C)c4=O)cc23)c1 (racemic) [Example 189, 1-Methyl-3-{3-{6-[(tetrahydro-5-methyl-2-oxo-3-furyl)oxy]-m-tolyl}-1,2-benzisothiazol-5-yl}-6-(trifluoromethyl)-2,4(1H,3H)-pyrimidinedione, DL-]
herbicidal effect rating, ECHORC [1, 7]: 0.0 | herbicidal effect rating, ECHORC [1, 8]: 0.0 | herbicidal effect rating, ECHORC [1, 9]: 0.0 | herbicidal effect rating, ECHORC [1, 10]: 0.0 | herbicidal effect rating, CYPIR [2, 7]: 0.0 | herbicidal effect rating, CYPIR [2, 8]: 0.0 | herbicidal effect rating, CYPIR [2, 9]: 0.0 | herbicidal effect rating, CYPIR [2, 10]: 0.0 | herbicidal effect rating, CYPSE [3, 7]: 0.0 | herbicidal effect rating, CYPSE [3, 8]: 0.0 | herbicidal effect rating, CYPSE [3, 9]: 0.0 | herbicidal effect rating, CYPSE [3, 10]: 0.0 | herbicidal effect rating, MOOVA [4, 7]: 0.0 | herbicidal effect rating, MOOVA [4, 8]: 0.0 | herbicidal effect rating, MOOVA [4, 9]: 2.0 | herbicidal effect rating, MOOVA [4, 10]: 8.0 | herbicidal effect rating, SAGPY [5, 7]: 0.0 | herbicidal effect rating, SAGPY [5, 8]: 0.0 | herbicidal effect rating, SAGPY [5, 9]: 0.0 | herbicidal effect rating, SAGPY [5, 10]: 0.0 | herbicidal effect rating, ORYSAT (rice tolerance) ([6]; 0.0313 kg/ha): 0.0 | herbicidal effect rating, ORYSAT (rice tolerance) ([6]; 0.0625 kg/ha): 0.0 | herbicidal effect rating, ORYSAT (rice tolerance) ([6]; 0.1250 kg/ha): 0.0 | herbicidal effect rating, ORYSAT (rice tolerance) ([6]; 0.2500 kg/ha): 0.0

Cn1c(C(F)(F)F)cc(=O)n(-c2ccc3snc(C(C#N)=Cc4ccc(O)cc4)c3c2)c1=O [Example 600, 1,2-Benzisothiazole-3-acetonitrile, 5-[3,6-dihydro-3-methyl-2,6-dioxo-4-(trifluoromethyl)-1(2H)-pyrimidinyl]-alpha-(p-hydroxybenzylidene)-]
herbicidal effect rating, ECHORC [1, 11]: 0.0 | herbicidal effect rating, ECHORC [1, 12]: 0.0 | herbicidal effect rating, ECHORC [1, 13]: 0.0 | herbicidal effect rating, ECHORC [1, 14]: 2.0 | herbicidal effect rating, CYPIR [2, 11]: 0.0 | herbicidal effect rating, CYPIR [2, 12]: 0.0 | herbicidal effect rating, CYPIR [2, 13]: 0.0 | herbicidal effect rating, CYPIR [2, 14]: 2.0 | herbicidal effect rating, CYPSE [3, 11]: 0.0 | herbicidal effect rating, CYPSE [3, 12]: 0.0 | herbicidal effect rating, CYPSE [3, 14]: 0.0 | herbicidal effect rating, MOOVA [4, 11]: 6.0 | herbicidal effect rating, MOOVA [4, 12]: 6.0 | herbicidal effect rating, MOOVA [4, 13]: 7.0 | herbicidal effect rating, MOOVA [4, 14]: 7.0 | herbicidal effect rating, SAGPY [5, 11]: 0.0 | herbicidal effect rating, SAGPY [5, 12]: 0.0 | herbicidal effect rating, SAGPY [5, 13]: 0.0 | herbicidal effect rating, SAGPY [5, 14]: 0.0 | herbicidal effect rating ORYSAT ([6]; Rate 0.0320 kg/ha): 3.0 | herbicidal effect rating ORYSAT ([6]; Rate 0.0620 kg/ha): 3.0 | herbicidal effect rating ORYSAT ([6]; Rate 0.1250 kg/ha): 4.0 | herbicidal effect rating ORYSAT ([6]; Rate 0.2500 kg/ha): 4.0
